Assay results: patent publication EP1205482A2, “Alkyl trimethylsiloxybenzoat compounds and method of preparation” (Clariant Life Science Molecules (Florida) Inc., priority 2000, dated 2002)

Assay: Hydrolytic stability in aqueous medium
Assay type: physicochemical
Conditions: 50/50 w/w medium of 1,2-dimethoxyethane (DME) and sterilized water
Method: Aqueous solutions of the products from examples 3 and 5 above were prepared as follows. A 0.715% solution of propyl 4-trimethylsiloxybenzoate was prepared in a 50/50 w/w medium of 1,2-dimethoxyethane (DME)and sterilized water. […] Accordingly this DME/water solution (I) will contain 0.500% propyl 4-hydroxybenzoate and 0.180% trimethylsilanol and/or it's condensate hexamethyldisiloxane. In a similar manner a 0.685 % solution of butyl 4-trimethylsiloxybenzoate was prepared in a 50/50 w/w medium of 1,2-dimethoxyethane (DME)and sterilized water. […] Accordingly this DME/water solution (II) will contain 0.500% butyl 4-hydroxybenzoate and 0.170% trimethylsilanol and/or it's condensate hexamethyldisiloxane. The above two aqueous solutions were employed in Zone Inhibition Testing against three bacteria: Pseudomonas aeruginosa, Escherichia coli and Staphylococcus aureus.

SMILES	hydrolytic stability
CCCOC(=O)c1ccc(O[Si](C)(C)C)cc1 [Example 3, propyl 4-trimethylsiloxybenzoate]	hydrolytically unstable
CCCCOC(=O)c1ccc(O[Si](C)(C)C)cc1 [Example 4, butyl 4-trimethylsiloxybenzoate]	hydrolytically unstable
